# Laboratory results from patent US20250171438A1 (Agios Pharmaceuticals, Inc., priority 2022, published 2025).
# Molecular target: T1, human PAH with the R408W mutation (Homo sapiens, UniProt P00439, R408W)
# T1 construct: expressed in transfected cells
# T1 sequence (P00439 1-452 R408W): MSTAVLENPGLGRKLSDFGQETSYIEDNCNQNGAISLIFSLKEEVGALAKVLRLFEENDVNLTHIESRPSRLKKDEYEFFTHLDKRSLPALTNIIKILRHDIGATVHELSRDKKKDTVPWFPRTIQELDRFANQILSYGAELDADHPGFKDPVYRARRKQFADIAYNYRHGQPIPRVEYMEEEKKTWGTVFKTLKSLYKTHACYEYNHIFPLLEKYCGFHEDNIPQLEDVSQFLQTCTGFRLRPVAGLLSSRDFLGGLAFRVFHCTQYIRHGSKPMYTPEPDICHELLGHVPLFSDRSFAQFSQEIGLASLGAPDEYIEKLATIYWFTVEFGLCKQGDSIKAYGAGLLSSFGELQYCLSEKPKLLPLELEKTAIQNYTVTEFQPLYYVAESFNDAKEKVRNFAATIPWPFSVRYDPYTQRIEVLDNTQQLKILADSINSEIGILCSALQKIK
# Experiment: Cell Based Phenylalanine Flux Assay
# Settings: A375 cells expressing human R408W PAH; 24 hrs compound incubation; 13C-Tyrosine by LC-MS; average where tested multiple times; read-out: AC50
row,SMILES,AC50
1,"Cc1nc(C)c(C(=O)N2CCc3[nH]cnc3[C@@H]2c2nc3c(F)cccc3s2)o1 [Example 1322, (R)-(2,4-dimethyloxazol-5-yl)(4-(4-fluorobenzo[d]thiazol-2-yl)-6,7-dihydro-1H-imidazo[4,5-c]pyridin-5(4H)-yl)methanone]",> 5 µM
2,O=C(c1cnc(N2CCCC2)s1)N1CCc2[nH]cnc2[C@H]1c1nc2ccccc2s1 [Example 1323],< 0.5 µM
3,"O=C(c1cnc(N2CCCC2)s1)N1CCc2[nH]cnc2[C@@H]1c1nc2ccccc2s1 [Example 1324, (R)-(4-(benzo[d]thiazol-2-yl)-6,7-dihydro-1H-imidazo[4,5-c]pyridin-5(4H)-yl)(2-(pyrrolidin-1-yl)thiazol-5-yl)methanone]",1 to 5 µM
4,O=C(c1ocnc1C(F)(F)F)N1CCc2[nH]cnc2[C@H]1c1nc2ccccc2s1 [Example 1325],< 0.5 µM
5,"O=C(c1ocnc1C(F)(F)F)N1CCc2[nH]cnc2[C@@H]1c1nc2ccccc2s1 [Example 1326, (R)-(4-(benzo[d]thiazol-2-yl)-6,7-dihydro-1H-imidazo[4,5-c]pyridin-5(4H)-yl)(4-(trifluoromethyl)oxazol-5-yl)methanone]",0.5 to 1 µM
6,O=C(c1ocnc1C1CC1)N1CCc2[nH]cnc2[C@H]1c1nc2ccccc2s1 [Example 1327],< 0.5 µM
7,"O=C(c1ocnc1C1CC1)N1CCc2[nH]cnc2[C@@H]1c1nc2ccccc2s1 [Example 1328, (R)-(4-(benzo[d]thiazol-2-yl)-6,7-dihydro-1H-imidazo[4,5-c]pyridin-5(4H)-yl)(4-cyclopropyloxazol-5-yl)methanone]",1 to 5 µM
8,O=C(c1cnc(C2CC2)o1)N1CCc2[nH]cnc2[C@H]1c1nc2c(F)cccc2s1 [Example 1329],< 0.5 µM
9,"O=C(c1cnc(C2CC2)o1)N1CCc2[nH]cnc2[C@@H]1c1nc2c(F)cccc2s1 [Example 1330, (R)-(2-cyclopropyloxazol-5-yl)(4-(4-fluorobenzo[d]thiazol-2-yl)-6,7-dihydro-1H-imidazo[4,5-c]pyridin-5(4H)-yl)methanone]",1 to 5 µM
10,"Cc1nnc(C(=O)N2CCc3[nH]cnc3[C@H]2c2nc3cccc(F)c3s2)s1 [Example 1331, (S)-(4-(7-fluorobenzo[d]thiazol-2-yl)-6,7-dihydro-1H-imidazo[4,5-c]pyridin-5(4H)-yl)(5-methyl-1,3,4-thiadiazol-2-yl)methanone]",0.5 to 1 µM
11,"Cc1nnc(C(=O)N2CCc3[nH]cnc3[C@@H]2c2nc3cccc(F)c3s2)s1 [Example 1332, (R)-(4-(7-fluorobenzo[d]thiazol-2-yl)-6,7-dihydro-1H-imidazo[4,5-c]pyridin-5(4H)-yl)(5-methyl-1,3,4-thiadiazol-2-yl)methanone]",1 to 5 µM
12,"O=C(c1cnn2cc(F)ccc12)N1CCc2[nH]cnc2[C@H]1c1nc2cc(F)ccc2s1 [Example 1333, (S)-(4-(5-fluorobenzo[d]thiazol-2-yl)-6,7-dihydro-1H-imidazo[4,5-c]pyridin-5(4H)-yl)(6-fluoropyrazolo[1,5-a]pyridin-3-yl)methanone]",0.5 to 1 µM
13,"O=C(c1cnn2cc(F)ccc12)N1CCc2[nH]cnc2[C@@H]1c1nc2cc(F)ccc2s1 [Example 1334, (R)-(4-(5-fluorobenzo[d]thiazol-2-yl)-6,7-dihydro-1H-imidazo[4,5-c]pyridin-5(4H)-yl)(6-fluoropyrazolo[1,5-a]pyridin-3-yl)methanone]",> 5 µM
14,"O=C(c1cnn2ccccc12)N1CCc2[nH]cnc2[C@H]1c1nc2cccc(Br)c2s1 [Example 1335, (S)-(4-(7-bromobenzo[d]thiazol-2-yl)-6,7-dihydro-1H-imidazo[4,5-c]pyridin-5(4H)-yl)(pyrazolo[1,5-a]pyridin-3-yl)methanone]",< 0.5 µM
15,"O=C(c1cnn2ccccc12)N1CCc2[nH]cnc2[C@@H]1c1nc2cccc(Br)c2s1 [Example 1336, (R)-(4-(7-bromobenzo[d]thiazol-2-yl)-6,7-dihydro-1H-imidazo[4,5-c]pyridin-5(4H)-yl)(pyrazolo[1,5-a]pyridin-3-yl)methanone]",1 to 5 µM
16,O=C(c1cnc(-c2ccc(F)cn2)o1)N1CCc2[nH]cnc2[C@H]1c1nc2ccccc2s1 [Example 1337],< 0.5 µM
17,"O=C(c1cnc(-c2ccc(F)cn2)o1)N1CCc2[nH]cnc2[C@@H]1c1nc2ccccc2s1 [Example 1338, (R)-(4-(benzo[d]thiazol-2-yl)-6,7-dihydro-1H-imidazo[4,5-c]pyridin-5(4H)-yl)(2-(5-fluoropyridin-2-yl)oxazol-5-yl)methanone]",1 to 5 µM
18,O=C(c1cnc(-c2ccc(F)cn2)s1)N1CCc2[nH]cnc2[C@H]1c1nc2ccccc2s1 [Example 1339],< 0.5 µM
19,"O=C(c1cnc(-c2ccc(F)cn2)s1)N1CCc2[nH]cnc2[C@@H]1c1nc2ccccc2s1 [Example 1340, (R)-(4-(benzo[d]thiazol-2-yl)-6,7-dihydro-1H-imidazo[4,5-c]pyridin-5(4H)-yl)(2-(5-fluoropyridin-2-yl)thiazol-5-yl)methanone]",1 to 5 µM
20,O=C(c1scnc1C(F)(F)F)N1CCc2[nH]cnc2[C@H]1c1nc2ccccc2s1 [Example 1341],< 0.5 µM
21,"O=C(c1scnc1C(F)(F)F)N1CCc2[nH]cnc2[C@@H]1c1nc2ccccc2s1 [Example 1342, (R)-(4-(benzo[d]thiazol-2-yl)-6,7-dihydro-1H-imidazo[4,5-c]pyridin-5(4H)-yl)(4-(trifluoromethyl)thiazol-5-yl)methanone]",< 0.5 µM
22,"Cn1cc(-c2ncc(C(=O)N3CCc4[nH]cnc4[C@@H]3c3nc4ccccc4s3)o2)cn1 [Example 1343, (R)-(4-(benzo[d]thiazol-2-yl)-6,7-dihydro-1H-imidazo[4,5-c]pyridin-5(4H)-yl)(2-(1-methyl-1H-pyrazol-4-yl)oxazol-5-yl)methanone]",1 to 5 µM
23,Cn1cc(-c2ncc(C(=O)N3CCc4[nH]cnc4[C@H]3c3nc4ccccc4s3)o2)cn1 [Example 1344],0.5 to 1 µM
24,"Cn1cc(-c2ncc(C(=O)N3CCc4[nH]cnc4[C@@H]3c3nc4c(F)cccc4s3)o2)cn1 [Example 1345, (R)-(4-(4-fluorobenzo[d]thiazol-2-yl)-6,7-dihydro-1H-imidazo[4,5-c]pyridin-5(4H)-yl)(2-(1-methyl-1H-pyrazol-4-yl)oxazol-5-yl)methanone]",1 to 5 µM
25,"Cn1cc(-c2ncc(C(=O)N3CCc4[nH]cnc4[C@H]3c3nc4c(F)cccc4s3)o2)cn1 [Example 1346, (S)-(4-(4-fluorobenzo[d]thiazol-2-yl)-6,7-dihydro-1H-imidazo[4,5-c]pyridin-5(4H)-yl)(2-(1-methyl-1H-pyrazol-4-yl)oxazol-5-yl)methanone]",0.5 to 1 µM
26,O=C(c1cnc(C(F)(F)F)o1)N1CCc2[nH]cnc2[C@H]1c1nc2ccccc2s1 [Example 1347],< 0.5 µM
27,"O=C(c1cnc(C(F)(F)F)o1)N1CCc2[nH]cnc2[C@@H]1c1nc2ccccc2s1 [Example 1348, (R)-(4-(benzo[d]thiazol-2-yl)-6,7-dihydro-1H-imidazo[4,5-c]pyridin-5(4H)-yl)(2-(trifluoromethyl)oxazol-5-yl)methanone]",1 to 5 µM
28,O=C(c1cnc(-c2ccc(C(F)(F)F)cn2)s1)N1CCc2[nH]cnc2[C@H]1c1nc2ccccc2s1 [Example 1349],1 to 5 µM
29,"O=C(c1cnc(-c2ccc(C(F)(F)F)cn2)s1)N1CCc2[nH]cnc2[C@@H]1c1nc2ccccc2s1 [Example 1350, (R)-(4-(benzo[d]thiazol-2-yl)-6,7-dihydro-1H-imidazo[4,5-c]pyridin-5(4H)-yl)(2-(5-(trifluoromethyl)pyridin-2-yl)thiazol-5-yl)methanone]",1 to 5 µM
